The term pIC50 denotes the negative decadic logarithm of the IC50, by convention in mol/L.

pIC50: −log10 of the molar value. Some results are limits rather than exact numbers.

In one experiment the target is T1, human full-length HSP90 (Homo sapiens, UniProt P08238).
T1 construct: E. coli expressed human full-length HSP90 protein; made in house; host or cells: E. coli
T1 sequence (P08238 whole entry): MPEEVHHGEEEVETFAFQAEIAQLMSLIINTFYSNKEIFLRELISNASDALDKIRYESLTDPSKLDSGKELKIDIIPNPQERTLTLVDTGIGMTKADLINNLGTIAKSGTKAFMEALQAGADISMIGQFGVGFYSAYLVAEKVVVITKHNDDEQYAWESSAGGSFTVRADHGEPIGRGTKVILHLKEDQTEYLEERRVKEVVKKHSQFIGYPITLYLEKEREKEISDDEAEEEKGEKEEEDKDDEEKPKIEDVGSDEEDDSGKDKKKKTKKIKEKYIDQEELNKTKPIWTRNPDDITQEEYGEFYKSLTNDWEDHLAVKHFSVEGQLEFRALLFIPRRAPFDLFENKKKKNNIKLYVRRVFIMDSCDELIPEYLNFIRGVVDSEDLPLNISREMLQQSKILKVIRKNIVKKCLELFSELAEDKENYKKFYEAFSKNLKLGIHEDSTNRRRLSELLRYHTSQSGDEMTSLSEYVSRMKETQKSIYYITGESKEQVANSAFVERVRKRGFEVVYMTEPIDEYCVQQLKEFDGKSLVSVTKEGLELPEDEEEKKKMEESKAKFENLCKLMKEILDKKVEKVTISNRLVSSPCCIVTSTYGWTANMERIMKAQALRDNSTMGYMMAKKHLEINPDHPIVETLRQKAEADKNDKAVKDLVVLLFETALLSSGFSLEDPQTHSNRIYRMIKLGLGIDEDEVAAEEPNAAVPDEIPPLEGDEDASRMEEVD
The experiment is described as follows: Fluorescence polarization assay (competitive displacement of fluorescein-labelled probe from HSP90). To be noted: human full-length HSP90 200 nM, probe 80 nM; read-out: FP IC50 (activity in the fluorescence polarization assay). Type of experiment: binding. From the text:
Fluorescence Polarization Assay
Fluorescence polarization {also known as fluorescence anisotropy} measures the rotation of a fluorescing species in solution, where the larger molecule the more polarized the fluorescence emission. When the fluorophore is excited with polarized light, the emitted light is also polarized. The molecular size is proportional to the polarization of the fluorescence emission.
The fluoroscein-labelled probe—
binds to HSP90 {full-length human, full-length yeast or N-terminal domain HSP90} and the anisotropy {rotation of the probe:protein complex} is measured.
Test compound is added to the assay plate, left to equilibrate and the anisotropy measured again. Any change in anisotropy is due to competitive binding of compound to HSP90, thereby releasing probe.
Chemicals are of the highest purity commercially available and all aqueous solutions are made up in AR water. • 1) Costar 96-well black assay plate #3915 • 2) Assay buffer of (a)100 mM Tris pH7.4; (b) 20 mM KCl; (c) 6 mM MgCl2. Stored at room temperature. • 3) BSA (bovine serum albumen) 10 mg/ml (New England Biolabs # B9001S) • 4) 20 mM probe in 100% DMSO stock concentration. Stored in the dark at RT. Working concentration is 200 nM diluted in AR water and stored at 4° C. Final concentration in assay 80 nM. • 5) E. coli expressed human full-length HSP90 protein, purified >95% (see, e.g., Panaretou et al., 1998) and stored in 50 μL aliquots at −80° C.
Protocol • 1) Add 100 μl 1× buffer to wells 11A and 12A (=FP BLNK) • 2) Prepare assay mix—all reagents are kept on ice with a lid on the bucket as the probe is light-sensitive.
• 3) Aliquot 100 μl assay mix to all other wells • 4) Seal plate and leave in dark at room temp for 20 minutes to equilibrate
Compound Dilution Plate—1×3 dilution series • 1) In a clear 96-well v-bottom plate—{# VWR 007/008/257} add 10 μl 100% DMSO to wells B1 to H11 • 2) To wells A1 to A11 add 17.5 μl 100% DMSO • 3) Add 2.5 μl cpd to A1. This gives 2.5 mM {50×} stock cpd—assuming cpds 20 mM. • 4) Repeat for wells A2 to A10. Control in columns 11 and 12. • 5) Transfer 5 μl from row A to row B—not column 12. Mix well. • 6) Transfer 5 μl from row B to row C. […] In column 11 {provides standard curve} only add compound B11-H11. Add 2 μl of 100 mM standard cpd to wells B12-H12 {is positive control} • 13) The Z′ factor is calculated from zero controls and positive wells. It typically gives a value of 0.7-0.9.
On the technique in general: Fluorescence polarisation rises when a labelled molecule tumbles more slowly, as on binding a larger partner.
In the case of `N#Cc1c[nH]c2nccc(-c3ccc(Cl)cc3Cl)c12` [Example 2, 4-(2,4-Dichloro-phenyl)-1H-pyrrolo[2,3-b]pyridine-3-carbonitrile], the pIC50 is over 6.00.
The same measure, in the same setting: under `Cc1ccc(-c2ccnc3[nH]cc(C#N)c23)c(C)c1` [Example 1, 4-(2,4-Dimethyl-phenyl)-1H-pyrrolo[2,3-b]pyridine-3-carbonitrile] stands over 6.00.
On the same count and under the same terms, under `COc1cc(-c2ccnc3[nH]cc(C#N)c23)c(Cl)cc1Cl` [Example 4, 4-(2,4-Dichloro-5-methoxy-phenyl)-1H-pyrrolo[2,3-b]pyridine-3-carbonitrile] stands over 6.00.
Regarding `N#Cc1c[nH]c2nc(Cl)cc(-c3cccc(O)c3)c12` [Example 14, 6-Chloro-4-(3-hydroxy-phenyl)-1H-pyrrolo[2,3-b]pyridine-3-carbonitrile], the pIC50 is over 6.00.
Same read-out and setting: under `N#Cc1c[nH]c2nc(Cl)cc(-c3ccc(Cl)cc3Cl)c12` [Example 3, 6-Chloro-4-(2,4-dichloro-phenyl)-1H-pyrrolo[2,3-b]pyridine-3-carbonitrile] stands over 6.00.
On the same count and under the same terms, the same measure for `N#Cc1c[nH]c2nc(OCCCN3CCCCC3)cc(-c3ccc(Cl)cc3Cl)c12` [Example 11, 4-(2,4-Dichloro-phenyl)-6-(3-piperidin-1-yl-propoxy)-1H-pyrrolo[2,3-b]pyridine-3-carbonitrile]: 5.00 to 6.00; for `CCN(CC)CCOc1cc(-c2ccccc2)c2c(C#N)c[nH]c2n1` [Example 9, 6-(2-Diethylamino-ethoxy)-4-phenyl-1H-pyrrolo[2,3-b]pyridine-3-carbonitrile]: under 5.00; for `CCN(CC)CCOc1cc(-c2ccc(Cl)cc2Cl)c2c(C#N)c[nH]c2n1` [Example 10, 4-(2,4-Dichloro-phenyl)-6-(2-diethylamino-ethoxy)-1H-pyrrolo[2,3-b]pyridine-3-carbonitrile]: 5.00 to 6.00.
Same read-out and setting: the same measure for `COc1cc(-c2cc(Cl)nc3[nH]cc(C#N)c23)c(Cl)cc1Cl` [Example 5, 6-Chloro-4-(2,4-dichloro-5-methoxy-phenyl)-1H-pyrrolo[2,3-b]pyridine-3-carbonitrile]: over 6.00.
As for `Cc1ccc(-c2ccnc3[nH]cc(C=O)c23)c(C)c1` [Example 7, 4-(2,4-Dimethyl-phenyl)-1H-pyrrolo[2,3-b]pyridine-3-carbaldehyde], the pIC50 is over 6.00.
On the same count and under the same terms, the same measure for `Cc1ccc(-c2ccnc3[nH]cc(Br)c23)c(C)c1` [Example 6]: 5.00 to 6.00; for `CCN(CC)CCOc1cccc(-c2ccnc3[nH]cc(C#N)c23)c1` [Example 13, 4-[3-(2-Diethylamino-ethoxy)-phenyl]-1H-pyrrolo[2,3-b]pyridine-3-carbonitrile]: 5.00 to 6.00.
The same measure, in the same setting: under `COc1cc(-c2ccccc2)c2c(C#N)c[nH]c2n1` [Example 15, 6-methoxy-4-(-phenyl)-1H-pyrrolo[2,3-b]pyridine-3-carbonitrile] stands over 6.00.
On the same count and under the same terms, the same measure for `N#Cc1c[nH]c2nccc(-c3cccc(O)c3)c12` [Example 12, 4-(3-Hydroxy-phenyl)-1H-pyrrolo[2,3-b]pyridine-3-carbonitrile]: 5.00 to 6.00.

Test system in the next experiment: not listed separately
As to the kind of experiment: Growth inhibition assay: cytotoxicity by sulforhodamine B (SRB) assay. Type of experiment: cell-based. To be noted: SRB stain, absorbance at 540 nm; cell line not named. The method, then: A growth inhibition assay was also employed for the evaluation of candidate HSP90 inhibitors:
Assessment of Cytotoxicity by Sulforhodamine B (SRB) Assay: Calculation of 50% Inhibitory Concentration (IC50).
Day 1 • 1) Determine cell number by haemocytometer. • 2) Using an 8 channel multipipettor, add 160 μl of the cell suspension (3600 cells/well or 2×10^4 cells/ml) to each well of a 96-well microtitre plate. • 3) Incubate overnight at 37° C. in a CO2 incubator. […]
Day 6 • 8) Tip off medium into sink and immerse plate slowly into 10% ice cold trichloroacetic acid (TCA). […] Leave for 15 mins. • 12) Wash off unbound SRB stain with four washes of 1% acetic acid. • 13) Dry plates in incubator. • 14) Solubilise SRB using 100 μl of 10 mM Tris base and put plates on plate shaker for 5 mins. • 15) Determine absorbance at 540 nm using a plate reader. Calculate mean absorbance for quadruplicate wells and express as a percentage of value for control, untreated wells. • 16) Plot % absorbance values versus log drug concentration and determine the IC50.
(In general: Sulforhodamine B stains cellular protein and so reports cell mass.)
`COc1cc(-c2cc(Cl)nc3[nH]cc(C#N)c23)c(Cl)cc1Cl` [Example 5, 6-Chloro-4-(2,4-dichloro-5-methoxy-phenyl)-1H-pyrrolo[2,3-b]pyridine-3-carbonitrile] gave a pIC50 of over 4.30.

Values taken from US20100010037A1, “1H-PYRROLO[2,3-B]PYRIDINE DERIVATIVES USEFUL AS HSP90 INHIBITORS” (VERNALIS (R&D) LTD., priority 2006, published 2010).
